Test results as given in patent US11572399B2, “Long-acting GIP peptide analogues” (University of Copenhagen, priority 2017, dated 2023).
Peptide text beside a SMILES is read from it. * marks the point of attachment. C16 diacid = O=C(O)CCCCCCCCCCCCCCC(=O)*

The compounds below were run against T1, human GIP receptor (Homo sapiens, UniProt P48546) (assay: cAMP accumulation assay, agonism (ligand alone)). Settings: COS-7, intrinsic cAMP activity; COS-7 cells; Table 1.
T1 construct: host or cells: COS-7, transient transfection (calcium phosphate), cDNA in pCMV-Script
T1 sequence (P48546 22-466): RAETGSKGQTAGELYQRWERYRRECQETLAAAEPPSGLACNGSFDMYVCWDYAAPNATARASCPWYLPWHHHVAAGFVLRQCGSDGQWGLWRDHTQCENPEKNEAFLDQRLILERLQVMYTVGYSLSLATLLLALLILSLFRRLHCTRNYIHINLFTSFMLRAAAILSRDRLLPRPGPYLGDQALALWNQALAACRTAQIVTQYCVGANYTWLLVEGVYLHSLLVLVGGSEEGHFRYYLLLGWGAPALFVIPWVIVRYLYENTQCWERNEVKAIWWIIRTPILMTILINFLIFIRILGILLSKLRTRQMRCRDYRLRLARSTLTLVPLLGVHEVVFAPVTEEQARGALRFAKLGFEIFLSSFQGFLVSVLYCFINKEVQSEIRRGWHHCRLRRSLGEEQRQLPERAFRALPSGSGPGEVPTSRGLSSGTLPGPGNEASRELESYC
Format: cell-based
Experimental: COS-7 cells were cultured at 10% CO2 and 37° C. in Dulbecco's modified Eagle's medium 1885 supplemented with 10% fetal bovine serum, 2 mM glutamine, 180 units/ml penicillin, and 45 µg/ml streptomycin. Transient transfection of the COS-7 cells for cAMP accumulation and competition binding was performed using the calcium phosphate precipitation method with the addition of chloroquine^46-47.
Transient transfected COS-7 cells expressing the human GIP receptor were seeded in white 96-well plates with a density of 3.5*10^4/well. The day after, the cells were washed twice with Hepes buffered saline (HBS) buffer and incubated with HBS and 1 mM 3-isobutyl-1-methylxanthine (IBMX) for 30 min at 37° C. To test for agonistic properties, ligands were added and incubated for 30 min at 37° C. In order to test for antagonistic properties, the cells were preincubated with the antagonists for 10 min prior to the addition of the agonist and subsequent incubated for 20 additional min. The HitHunter™ cAMP XS assay (DiscoveRx) was carried out according to the manufacturer's instructions.
IC50, EC50, and Ki values were determined by nonlinear regression. These were carried out with the GraphPad Prism 6.0 software (GraphPad, San Diego, Calif., USA) and Microsoft Excel™. Ki values were based on the formula for one class of binding sites in homologous competition binding studies and the Cheng Prussoffs formula, respectively (DeBlasi et al., 1989). To determine the HSA binding potential, the fold change in affinity (as determined by IC50) was calculated as IC50 (plus HSA)/IC50 (minus HSA).

**Q.** Which Emax does the source give for `CC[C@H](C)[C@H](NC(=O)[C@H](CO)NC(=O)[C@H](Cc1ccc(O)cc1)NC(=O)[C@H](CC(=O)O)NC(=O)[C@H](CO)NC(=O)[C@@H](NC(=O)[C@H](Cc1ccccc1)NC(=O)[C@@H](NC(=O)CNC(=O)[C@@H](N)CCC(=O)O)[C@@H](C)O)[C@@H](C)CC)C(=O)N[C@@H](C)C(=O)N[C@@H](CCSC)C(=O)N[C@@H](CC(=O)O)C(=O)N[C@@H](CCCCN)C(=O)N[C@H](C(=O)N[C@@H](Cc1c[nH]cn1)C(=O)N[C@@H](CCCCNC(=O)CCCCCCCCCCCCCCC(=O)O)C(=O)N[C@@H](CCC(N)=O)C(=O)N[C@@H](CC(=O)O)C(=O)N[C@@H](Cc1ccccc1)C(=O)N[C@H](C(=O)N[C@@H](CC(N)=O)C(=O)N[C@@H](Cc1c[nH]c2ccccc12)C(=O)N[C@@H](CC(C)C)C(=O)N[C@@H](CC(C)C)C(=O)N[C@@H](C)C(=O)N[C@@H](CCC(N)=O)C(=O)N[C@@H](CCCCN)C(N)=O)C(C)C)[C@@H](C)CC` [AT308, [hGIP(3-30)NH2[Q19K]-C16diacid/19]] (H-EGTFISDYSIAMDKIHK(C16 diacid)QDFVNWLLAQK-NH2; N-terminus assumed) here?
**A.** 7.9%

**Q.** Which Emax does the source give for `CC[C@H](C)[C@H](NC(=O)[C@H](CO)NC(=O)[C@H](Cc1ccc(O)cc1)NC(=O)[C@H](CC(=O)O)NC(=O)[C@H](CO)NC(=O)[C@@H](NC(=O)[C@H](Cc1ccccc1)NC(=O)[C@@H](NC(=O)[C@H](CCCCNC(=O)CCCCCCCCCCCCCCC(=O)O)NC(=O)[C@@H](N)CCC(=O)O)[C@@H](C)O)[C@@H](C)CC)C(=O)N[C@@H](C)C(=O)N[C@@H](CCSC)C(=O)N[C@@H](CC(=O)O)C(=O)N[C@@H](CCCCN)C(=O)N[C@H](C(=O)N[C@@H](Cc1c[nH]cn1)C(=O)N[C@@H](CCC(N)=O)C(=O)N[C@@H](CCC(N)=O)C(=O)N[C@@H](CC(=O)O)C(=O)N[C@@H](Cc1ccccc1)C(=O)N[C@H](C(=O)N[C@@H](CC(N)=O)C(=O)N[C@@H](Cc1c[nH]c2ccccc12)C(=O)N[C@@H](CC(C)C)C(=O)N[C@@H](CC(C)C)C(=O)N[C@@H](C)C(=O)N[C@@H](CCC(N)=O)C(=O)N[C@@H](CCCCN)C(N)=O)C(C)C)[C@@H](C)CC` [AT295, [hGIP(3-30)NH2[G4K]-C16diacid/4]] here?
**A.** 78.6%

**Q.** How did the Emax turn out when `CC[C@H](C)[C@H](NC(=O)[C@H](CO)NC(=O)[C@H](Cc1ccc(O)cc1)NC(=O)[C@H](CC(=O)O)NC(=O)[C@H](CO)NC(=O)[C@@H](NC(=O)[C@H](Cc1ccccc1)NC(=O)[C@@H](NC(=O)CNC(=O)[C@@H](N)CCC(=O)O)[C@@H](C)O)[C@@H](C)CC)C(=O)N[C@@H](C)C(=O)N[C@@H](CCSC)C(=O)N[C@@H](CC(=O)O)C(=O)N[C@@H](CCCCN)C(=O)N[C@H](C(=O)N[C@@H](Cc1c[nH]cn1)C(=O)N[C@@H](CCC(N)=O)C(=O)N[C@@H](CCC(N)=O)C(=O)N[C@@H](CC(=O)O)C(=O)N[C@@H](Cc1ccccc1)C(=O)N[C@H](C(=O)N[C@@H](CC(N)=O)C(=O)N[C@@H](Cc1c[nH]c2ccccc12)C(=O)N[C@@H](CC(C)C)C(=O)N[C@@H](CCCCNC(=O)CCCCCCCCCCCCCCC(=O)O)C(=O)N[C@@H](C)C(=O)N[C@@H](CCC(N)=O)C(=O)N[C@@H](CCCCN)C(N)=O)C(C)C)[C@@H](C)CC` [AT316, [hGIP(3-30)NH2[L27K]-C16diacid/27]] (H-EGTFISDYSIAMDKIHQQDFVNWLK(C16 diacid)AQK-NH2; N-terminus assumed) was run?
**A.** 6.2%

**Q.** Which Emax does the source give for `CC[C@H](C)[C@H](NC(=O)[C@H](CO)NC(=O)[C@H](Cc1ccc(O)cc1)NC(=O)[C@H](CC(=O)O)NC(=O)[C@H](CO)NC(=O)[C@@H](NC(=O)[C@H](Cc1ccccc1)NC(=O)[C@@H](N)CCCCNC(=O)CCCCCCCCCCCCCCC(=O)O)[C@@H](C)CC)C(=O)N[C@@H](C)C(=O)N[C@@H](CCSC)C(=O)N[C@@H](CC(=O)O)C(=O)N[C@@H](CCCCN)C(=O)N[C@H](C(=O)N[C@@H](Cc1c[nH]cn1)C(=O)N[C@@H](CCC(N)=O)C(=O)N[C@@H](CCC(N)=O)C(=O)N[C@@H](CC(=O)O)C(=O)N[C@@H](Cc1ccccc1)C(=O)N[C@H](C(=O)N[C@@H](CC(N)=O)C(=O)N[C@@H](Cc1c[nH]c2ccccc12)C(=O)N[C@@H](CC(C)C)C(=O)N[C@@H](CC(C)C)C(=O)N[C@@H](C)C(=O)N[C@@H](CCC(N)=O)C(=O)N[C@@H](CCCCN)C(N)=O)C(C)C)[C@@H](C)CC` [AT293, [hGIP(5-30)NH2[T5KK]-C16diacid/5]] here?
**A.** 0%

**Q.** `CCCCCCCCCCCCCC(=O)NCCCC[C@H](NC(=O)[C@H](CCC(N)=O)NC(=O)[C@H](C)NC(=O)[C@H](CC(C)C)NC(=O)[C@H](CC(C)C)NC(=O)[C@H](Cc1c[nH]c2ccccc12)NC(=O)[C@H](CC(N)=O)NC(=O)[C@@H](NC(=O)[C@H](Cc1ccccc1)NC(=O)[C@H](CC(=O)O)NC(=O)[C@H](CCC(N)=O)NC(=O)[C@H](CCC(N)=O)NC(=O)[C@H](Cc1c[nH]cn1)NC(=O)[C@@H](NC(=O)[C@H](CCCCN)NC(=O)[C@H](CC(=O)O)NC(=O)[C@H](CCSC)NC(=O)[C@H](C)NC(=O)[C@@H](NC(=O)[C@H](CO)NC(=O)[C@H](Cc1ccc(O)cc1)NC(=O)[C@H](CC(=O)O)NC(=O)[C@H](CO)NC(=O)[C@@H](NC(=O)[C@H](Cc1ccccc1)NC(=O)[C@@H](NC(=O)CNC(=O)[C@@H](N)CCC(=O)O)[C@@H](C)O)[C@@H](C)CC)[C@@H](C)CC)[C@@H](C)CC)C(C)C)C(N)=O` [AT112, [hGIP(3-30)NH2—C14/30]] was tested. Which Emax did it give?
**A.** 29%

**Q.** For `CCCCCCCCCCCC(=O)NCCCC[C@H](NC(=O)[C@H](CCC(N)=O)NC(=O)[C@H](C)NC(=O)[C@H](CC(C)C)NC(=O)[C@H](CC(C)C)NC(=O)[C@H](Cc1c[nH]c2ccccc12)NC(=O)[C@H](CC(N)=O)NC(=O)[C@@H](NC(=O)[C@H](Cc1ccccc1)NC(=O)[C@H](CC(=O)O)NC(=O)[C@H](CCC(N)=O)NC(=O)[C@H](CCC(N)=O)NC(=O)[C@H](Cc1c[nH]cn1)NC(=O)[C@@H](NC(=O)[C@H](CCCCN)NC(=O)[C@H](CC(=O)O)NC(=O)[C@H](CCSC)NC(=O)[C@H](C)NC(=O)[C@@H](NC(=O)[C@H](CO)NC(=O)[C@H](Cc1ccc(O)cc1)NC(=O)[C@H](CC(=O)O)NC(=O)[C@H](CO)NC(=O)[C@@H](NC(=O)[C@H](Cc1ccccc1)NC(=O)[C@@H](N)[C@@H](C)O)[C@@H](C)CC)[C@@H](C)CC)[C@@H](C)CC)C(C)C)C(N)=O` [AT120, [hGIP(5-30)NH2—C12/30]], which Emax is on record?
**A.** 0%

**Q.** `CC[C@H](C)[C@H](NC(=O)[C@H](CO)NC(=O)[C@H](Cc1ccc(O)cc1)NC(=O)[C@H](CC(=O)O)NC(=O)[C@H](CO)NC(=O)[C@@H](NC(=O)[C@H](Cc1ccccc1)NC(=O)[C@@H](NC(=O)CNC(=O)[C@@H](N)CCC(=O)O)[C@@H](C)O)[C@@H](C)CC)C(=O)N[C@@H](C)C(=O)N[C@@H](CCSC)C(=O)N[C@@H](CC(=O)O)C(=O)N[C@@H](CCCCN)C(=O)N[C@H](C(=O)N[C@@H](Cc1c[nH]cn1)C(=O)N[C@@H](CCC(N)=O)C(=O)N[C@@H](CCC(N)=O)C(=O)N[C@@H](CC(=O)O)C(=O)N[C@@H](Cc1ccccc1)C(=O)N[C@@H](CCCCNC(=O)CCCCCCCCCCCCCCC(=O)O)C(=O)N[C@@H](CC(N)=O)C(=O)N[C@@H](Cc1c[nH]c2ccccc12)C(=O)N[C@@H](CC(C)C)C(=O)N[C@@H](CC(C)C)C(=O)N[C@@H](C)C(=O)N[C@@H](CCC(N)=O)C(=O)N[C@@H](CCCCN)C(N)=O)[C@@H](C)CC` [AT312, [hGIP(3-30)NH2[V23K]-C16diacid/23]] (H-EGTFISDYSIAMDKIHQQDFK(C16 diacid)NWLLAQK-NH2; N-terminus assumed) was tested. Which Emax did it give?
**A.** 54%

Same assay, conditions: COS-7 cells; Table 1; read-out: cAMP agonism nM (EC50)

**Q.** How did the EC50 turn out when `CCCCCCCCCCCCCCCCCC(=O)NCCCC[C@H](NC(=O)[C@H](CCC(N)=O)NC(=O)[C@H](C)NC(=O)[C@H](CC(C)C)NC(=O)[C@H](CC(C)C)NC(=O)[C@H](Cc1c[nH]c2ccccc12)NC(=O)[C@H](CC(N)=O)NC(=O)[C@@H](NC(=O)[C@H](Cc1ccccc1)NC(=O)[C@H](CC(=O)O)NC(=O)[C@H](CCC(N)=O)NC(=O)[C@H](CCC(N)=O)NC(=O)[C@H](Cc1c[nH]cn1)NC(=O)[C@@H](NC(=O)[C@H](CCCCN)NC(=O)[C@H](CC(=O)O)NC(=O)[C@H](CCSC)NC(=O)[C@H](C)NC(=O)[C@@H](NC(=O)[C@H](CO)NC(=O)[C@H](Cc1ccc(O)cc1)NC(=O)[C@H](CC(=O)O)NC(=O)[C@H](CO)NC(=O)[C@@H](NC(=O)[C@H](Cc1ccccc1)NC(=O)[C@@H](NC(=O)CNC(=O)[C@@H](N)CCC(=O)O)[C@@H](C)O)[C@@H](C)CC)[C@@H](C)CC)[C@@H](C)CC)C(C)C)C(N)=O` [AT115, [hGIP(3-30)NH2—C18/30]] was run?
**A.** 134 nM

**Q.** How did the EC50 turn out when `CC[C@H](C)[C@H](NC(=O)[C@H](CO)NC(=O)[C@H](Cc1ccc(O)cc1)NC(=O)[C@H](CC(=O)O)NC(=O)[C@H](CO)NC(=O)[C@@H](NC(=O)[C@H](Cc1ccccc1)NC(=O)[C@@H](NC(=O)[C@H](CCCCNC(=O)CCCCCCCCCCCCCCC(=O)O)NC(=O)[C@@H](N)CCC(=O)O)[C@@H](C)O)[C@@H](C)CC)C(=O)N[C@@H](C)C(=O)N[C@@H](CCSC)C(=O)N[C@@H](CC(=O)O)C(=O)N[C@@H](CCCCN)C(=O)N[C@H](C(=O)N[C@@H](Cc1c[nH]cn1)C(=O)N[C@@H](CCC(N)=O)C(=O)N[C@@H](CCC(N)=O)C(=O)N[C@@H](CC(=O)O)C(=O)N[C@@H](Cc1ccccc1)C(=O)N[C@H](C(=O)N[C@@H](CC(N)=O)C(=O)N[C@@H](Cc1c[nH]c2ccccc12)C(=O)N[C@@H](CC(C)C)C(=O)N[C@@H](CC(C)C)C(=O)N[C@@H](C)C(=O)N[C@@H](CCC(N)=O)C(=O)N[C@@H](CCCCN)C(N)=O)C(C)C)[C@@H](C)CC` [AT295, [hGIP(3-30)NH2[G4K]-C16diacid/4]] was run?
**A.** 2.6 nM
